Measurements reported in patent publication US10053428B2, “5-aminotetrahydroquinoline-2-carboxylic acids and their use” (BAYER PHARMA AKTIENGESELLSCHAFT, priority 2012, dated 2018).
pIC50: −log10 of the molar value. Blank lines part the entries; values can stand above or below the compound they belong to.

What was measured:
[1] = tested on: recombinant guanylate cyclase reporter cell line; experiment: sGC-activating activity in the CHO reporter cell in vitro; type: cell-based; conditions: read-out: MEC (minimum effective concentration)
Protocol: B-2. Action at a Recombinant Guanylate Cyclase Reporter Cell Line
The cellular action of the compounds according to the invention is determined at a recombinant guanylate cyclase reporter cell line, as described in F. Wunder et al., Anal. Biochem. 32, 104-112 (2005).

saphenous artery rings = experiment: Vasorelaxant effect in vitro (phenylephrine-contracted saphenous artery rings); design: species or system Rabbits; conditions: rabbit saphenous artery rings; read-out: IC50 (concentration reducing phenylephrine-induced contraction by 50%)
Protocol: B-3. Vasorelaxant Effect In Vitro
Rabbits are anaesthetized and sacrificed by intravenous injection of thiopental sodium (about 50 mg/kg) and exsanguinated. The saphenous artery is removed and divided into rings 3 mm wide. The rings are mounted singly on in each case a pair of triangular hooks open at the end and made of 0.3 mm-thick special wire (Remanium®). Each ring is placed under an initial tension in 5 ml organ baths with Krebs-Henseleit solution which is at 37° C., is gassed with carbogen and has the following composition: NaCl 119 mM; KCl 4.8 mM; CaCl2×2 H2O 1 mM; MgSO4×7H2O 1.4 mM; KH2PO4 1.2 mM; NaHCO3 25 mM; glucose 10 mM; bovine serum albumin 0.001%. The force of contraction is detected with Statham UC2 cells, amplified and digitized via A/D converters (DAS-1802 HC, Keithley Instruments, Munich) and recorded in parallel on chart recorders. Contractions are induced by addition of phenylephrine.
After several (generally 4) control cycles, the substance to be investigated is added in each further run in increasing dosage, and the level of the contraction achieved under the influence of the test substance is compared with the level of the contraction reached in the last preceding run. The concentration necessary to reduce the contraction reached in the preceding control by 50% is calculated from this (IC50). The standard application volume is 5 μl. The proportion of DMSO in the bath solution corresponds to 0.1%.

[2] = target: T1, haem-free recombinant soluble guanylate cyclase (sGC) (Rattus norvegicus, UniProt P20595); experiment: Stimulation of recombinant soluble guanylate cyclase (sGC) in vitro, haem-free enzyme; type: biochemical
T1 construct: made in house; host or cells: Sf9 insect cells (baculovirus)
T1 sequence (P20595 1-619): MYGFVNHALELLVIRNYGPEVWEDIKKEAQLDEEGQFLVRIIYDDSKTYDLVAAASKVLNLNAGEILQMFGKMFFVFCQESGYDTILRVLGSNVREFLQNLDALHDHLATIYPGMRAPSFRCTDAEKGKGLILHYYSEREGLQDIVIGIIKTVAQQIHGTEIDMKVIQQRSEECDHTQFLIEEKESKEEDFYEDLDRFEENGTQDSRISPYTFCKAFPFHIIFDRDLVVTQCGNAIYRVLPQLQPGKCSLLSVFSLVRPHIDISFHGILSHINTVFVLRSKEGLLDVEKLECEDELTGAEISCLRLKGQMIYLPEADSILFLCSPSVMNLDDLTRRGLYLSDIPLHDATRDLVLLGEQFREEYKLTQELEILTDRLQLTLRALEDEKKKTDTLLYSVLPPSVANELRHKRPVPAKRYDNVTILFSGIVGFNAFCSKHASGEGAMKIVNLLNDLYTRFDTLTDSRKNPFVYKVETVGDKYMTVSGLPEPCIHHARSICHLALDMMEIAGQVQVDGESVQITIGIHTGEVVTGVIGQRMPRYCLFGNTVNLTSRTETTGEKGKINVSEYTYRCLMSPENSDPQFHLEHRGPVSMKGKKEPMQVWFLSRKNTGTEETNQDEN
T1 sequence (P19686 1-690 partner): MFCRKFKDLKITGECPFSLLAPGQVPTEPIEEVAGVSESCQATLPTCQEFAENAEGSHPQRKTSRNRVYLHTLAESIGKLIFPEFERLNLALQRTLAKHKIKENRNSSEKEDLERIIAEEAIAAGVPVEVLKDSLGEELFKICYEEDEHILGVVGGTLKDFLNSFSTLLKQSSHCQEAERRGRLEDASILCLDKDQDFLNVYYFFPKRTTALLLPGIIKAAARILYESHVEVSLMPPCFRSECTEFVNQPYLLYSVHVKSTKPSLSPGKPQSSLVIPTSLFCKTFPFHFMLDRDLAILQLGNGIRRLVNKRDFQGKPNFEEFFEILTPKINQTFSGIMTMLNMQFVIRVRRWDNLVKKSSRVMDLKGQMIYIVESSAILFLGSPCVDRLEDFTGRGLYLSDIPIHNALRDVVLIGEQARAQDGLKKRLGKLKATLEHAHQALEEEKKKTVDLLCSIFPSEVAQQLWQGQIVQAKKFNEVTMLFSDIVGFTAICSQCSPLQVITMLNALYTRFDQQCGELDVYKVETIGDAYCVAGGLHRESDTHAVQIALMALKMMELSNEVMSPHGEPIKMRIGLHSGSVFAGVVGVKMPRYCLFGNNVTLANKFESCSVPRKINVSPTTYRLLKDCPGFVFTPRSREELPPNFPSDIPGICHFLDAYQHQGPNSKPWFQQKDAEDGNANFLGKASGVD
Protocol: (§1) B-1. Stimulation of Recombinant Soluble Guanylate Cyclase (sGC) In Vitro
(§2) Investigations on the stimulation of recombinant soluble guanylate cyclase (sGC) by the compounds according to the invention with and without sodium nitroprusside, and with and without the haem-dependent sGC inhibitor 1H-1,2,4-oxadiazolo[4,3a]quinoxalin-1-one (ODQ), are carried out by the method described in detail in the following reference: M. Hoenicka, E. M. Becker, H. Apeler, T. Sirichoke, H. Schroeder, R. Gerzer and J.-P. Stasch, “Purified soluble guanylyl cyclase expressed in a baculovirus/Sf9 system: Stimulation by YC-1, nitric oxide, and carbon oxide”, J. Mol. Med 77 (1999), 14-23. The haem-free guanylate cyclase is obtained by adding Tween 20 to the sample buffer (0.5% in the final concentration).
The activation of sGC by a test substance is reported as x-fold stimulation of the basal activity. The result for Example 2 is shown in Table 1A, that for Example 23 in Table 1B and that for Example 39 in Table 1C: […]

[3] = target: T2, haem-containing recombinant soluble guanylate cyclase (sGC) (Rattus norvegicus, UniProt P20595); experiment: Stimulation of recombinant soluble guanylate cyclase (sGC) in vitro, haem-containing enzyme; type: biochemical
T2 construct: made in house; host or cells: Sf9 insect cells (baculovirus)
T2 sequence (P20595 1-619): T1 sequence (P20595 1-619)
T2 sequence (P19686 1-690 partner): T1 sequence (P19686 1-690 partner)
Protocol: as §1, §2
The activation of sGC by a test substance is reported as x-fold stimulation of the basal activity. The result for Example 2 is shown in Table 1A, that for Example 23 in Table 1B and that for Example 39 in Table 1C:
[DEA/NO=2-(N,N-diethylamino)diazenolate 2-oxide; ODQ=1H-1,2,4-oxadiazolo-[4,3a]quinoxalin-1-one].

[4] = tested on: animal model of pulmonary hypertension; conditions: cited from earlier work

pIC50 (saphenous artery rings): 10.00
SMILES: O=C(O)CCCCN(CCc1ccccc1OCc1ccc(CCc2ccccc2)cc1)C1CCCc2nc(C(=O)O)ccc21 (single isomer, unassigned; enantiomer 1) [Example 13, 5-{(4-Carboxybutyl)[2-(2-{[4-(2-phenylethyl)benzyl]oxy}phenyl)ethyl]amino}-5,6,7,8-tetrahydroquinoline-2-carboxylic acid (Enantiomer 1)]
minimal effective concentration [1]: 0.3 nM

Stimulation (x-fold), haem-free sGC, basal ([2]; test compound 0.01 μM): 5.2 ± 0.6 x-fold | Stimulation (x-fold), haem-free sGC, basal ([2]; test compound 0.1 μM): 19.9 ± 2.2 x-fold | Stimulation (x-fold), haem-free sGC, basal ([2]; test compound 1.0 μM): 82.7 ± 10.5 x-fold | Stimulation (x-fold), haem-free sGC, basal ([2]; test compound 10 μM): 169.5 ± 23.6 x-fold | pIC50 (saphenous artery rings): 8.44 | Effect of combination with the NO donor DEA/NO on sGC stimulation ([3]; combination with DEA/NO): no synergistic effect | Stimulation (x-fold), haem-containing sGC, basal ([3]; test compound 0.01 μM): 13.7 ± 1.9 x-fold | Stimulation (x-fold), haem-containing sGC, +0.01 μM DEA/NO ([3]; test compound 0.01 μM): 20.2 ± 3.8 x-fold | Stimulation (x-fold), haem-containing sGC, +10 μM ODQ ([3]; test compound 0.01 μM): 63.9 ± 12.2 x-fold | Stimulation (x-fold), haem-containing sGC, basal ([3]; test compound 0.1 μM): 31.2 ± 3.5 x-fold | Stimulation (x-fold), haem-containing sGC, +0.01 μM DEA/NO ([3]; test compound 0.1 μM): 42.7 ± 7.2 x-fold | Stimulation (x-fold), haem-containing sGC, +10 μM ODQ ([3]; test compound 0.1 μM): 129.2 ± 18.9 x-fold | Stimulation (x-fold), haem-containing sGC, basal ([3]; test compound 1.0 μM): 40.2 ± 4.0 x-fold | Stimulation (x-fold), haem-containing sGC, +0.01 μM DEA/NO ([3]; test compound 1.0 μM): 56.5 ± 10.5 x-fold | Stimulation (x-fold), haem-containing sGC, +10 μM ODQ ([3]; test compound 1.0 μM): 172.2 ± 26.3 x-fold | Stimulation (x-fold), haem-containing sGC, basal ([3]; test compound 10 μM): 51.6 ± 6.4 x-fold | Stimulation (x-fold), haem-containing sGC, +0.01 μM DEA/NO ([3]; test compound 10 μM): 62.7 ± 11.0 x-fold | Stimulation (x-fold), haem-containing sGC, +10 μM ODQ ([3]; test compound 10 μM): 189.5 ± 28.2 x-fold
SMILES: Cc1ccc2oc(-c3ccc(COc4ccccc4CCN(CCCCC(=O)O)C4CCCc5nc(C(=O)O)ccc54)cc3)nc2c1 (single isomer, unassigned; enantiomer 2) [Example 2, (+)-5-{(4-Carboxybutyl)[2-(2-{[4-(5-methyl-1,3-benzoxazol-2-yl)benzyl]oxy}phenyl)ethyl]-amino}-5,6,7,8-tetrahydroquinoline-2-carboxylic acid (Enantiomer 2)]
minimal effective concentration [1]: 1.1 nM

SMILES: O=C(O)CCCCN(CCc1ccccc1OCc1ccc(CCc2ccccc2)cc1)Cc1ccc(C(=O)O)cc1 [BAY 58-2667, cinaciguat]
Duration of action ([4]; inhalative): did not have a sufficient duration of action | Pulmonary arterial pressure after inhalative administration ([4]; microparticles): dose-dependent selective reduction
